Measured values: PMC12501849, “Design, synthesis and evaluation of arylpurine-based sinefungin mimetics as zika virus methyltransferase inhibitors” (RSC Advances, 2025)
“Also recorded” adds a separate entry of the source.

Columns and labels:
[1] = Cytotoxicity in non-infected VeroE6 cells; assay type: cell-based, African green monkey; settings: African green monkey, non-infected, 50% cytotoxic concentration
Description: (§1) Assessment of the antiviral activity against ZIKV in VeroE6 cells (African green monkey kidney cells; Vero 76, clone E6; ATCC: Cat# CRL-1586) was done as previously described.[35] The antiviral assays in the neuroblastoma SH-SY5Y cells (CRL-2266; ATCC) were conducted as follows: SH-SY5Y cells were seeded in assay medium (MEM supplemented with 2% fetal bovine serum, 2 mM L-glutamine and 0.075% sodium bicarbonate; all from Thermo Fisher Scientific) at a density of 15 000 cells/well in 96-well plates. Cells were incubated overnight at 37 °C and 5% CO2. The next day, a serial dilution of the compounds was added to the cells, followed by inoculation of the cells with ZIKV MR766 (MOI = 0.01). Following a 7-day incubation at 37 °C and 5% CO2, ZIKV-induced cytopathic effect was determined by means of the MTS readout method, analogous to the assay with the VeroE6 cells.[35] The 50% effective concentration (the compound concentration that is required to inhibit virus-induced CPE by 50%; EC50) and the 50% cytotoxic concentration (i.e. the compound concentration that is required to inhibit the cell growth by 50%; CC50) was determined using logarithmic interpolation.

[2] = tested on: ZIKV; experiment: Antiviral assay against ZIKV in VeroE6 cells (CPE, MTS readout); assay type: cell-based, zika virus; settings: for EC50: Zika virus, Vero C1008, VeroE6 cells, concentration that protects 50% of the cells from virus-induced cytopathic effect
Description: (§2) These compounds were next evaluated for their antiviral effect on ZIKV replication in Vero E6 and SH-SY5Y cells. 7-Deaza-2′-C-methyladenosine (7DMA), a viral polymerase inhibitor,[35] was included as a positive control.
as §1

[3] = Cytotoxicity in non-infected SH-SY5Y cells; assay type: cell-based; settings: human, SH-SY5Y neuroblastoma cells, 50% cytotoxic concentration
Description: as §1

[4] = tested on: ZIKV MR766; experiment: Antiviral assay against ZIKV in SH-SY5Y cells (CPE, MTS readout); assay type: cell-based, zika virus; settings: Zika virus, 168 h; SH-SY5Y cells; ZIKV MR766, MOI 0.01, 7-day incubation
Description: as §2
Besides the standard assays in VeroE6 cells, the compounds were also tested in SH-SY5Y cells. […] Thus, they function as a relevant neuronal cell-based model of ZIKV infection.[38]
as §1

[5] = biological target: T1, DENV3 MTase (Dengue virus type 3, UniProt P27915); experiment: Filter binding assay (FBA), DENV3 2′-O-MTase activity; assay type: biochemical; settings: for inhibition at 50 µM: 2′-O-MTase activity, compound at 50 μM, read-out: Percentage of inhibition of DENV3 MTase; for Effect on 2′-O-MTase activity of DENV3 (in words): tested at 50 μM
T1 construct: the MTase activity is located at the N-terminal of the viral NS5 protein; made in house
Description: (§3) The synthesized arylpurines were evaluated for their inhibitory activity against the 2′-O-MTase activity of ZIKV and DENV3 MTases by quantification of [^3H]-methyl transfer from the [^3H]-SAM on short synthetic capped RNA (GpppAC4), by using a filter binding assay (FBA).[13,33] The universal methyltransferase inhibitor sinefungin was included as a positive control (Table 1), whose IC50 value against ZIKV MTase has already been reported using a similar assay.[13] We assessed MTase inhibition by testing the synthesized compounds at a concentration of 50 μM.
(§4) Proteins were produced and purified as previously described.[13] Briefly, the coding sequence of ZIKV NS5 (aa 4-903) and the ZIKV NS5 MTase (aa 4-278) domain were synthesized (Genscript) based on the sequence of the ZIKV strain H/PF/2013 (GenBank accession no. KJ776791.2) and then cloned into a pQE30 (Qiagen) plasmid with an N-terminal His6 tag. The MTase domains (aa 4-278 and aa 1-264) were produced in Escherichia coli T7 Express Iq (New England BioLabs). Cells were grown in Terrific Broth at 37 °C until the optical density at 600 nm (OD600) reached 0.6. Protein expression was then induced by 0.5 mM IPTG (isopropyl-β-D-thiogalactopyranoside) at 17 °C overnight. Bacteria were harvested by centrifugation. The bacterial pellets from a 2-liter bacterial culture were resuspended in 100 ml lysis buffer (50 mM Tris–HCl [pH 8], 300 mM NaCl, 5% glycerol, 0.1% Triton, 10 μg per ml DNase I, 2 tablets of EDTA-free antiprotease cocktail [Roche], 0.25 mg per ml lysozyme). After 30 min of incubation at 4 °C, cells were sonicated and clarified by centrifugation prior to immobilized metal affinity chromatography (IMAC) purification on a 5-mL His prep column (GE Healthcare), with elution in 50 mM Tris–HCl, 300 mM NaCl, and 250 mM imidazole (pH 8.0). The eluted protein was then loaded on a 16/60 Superdex 200 (GE Healthcare) equilibrated in a mixture of 10 mM HEPES, 500 mM NaCl, glycerol 5%, and 1 mM dithiothreitol (DTT [pH 7.5]).
(§5) The FBA MTase assay was carried out in a reaction mixture [40 mM Tris–HCl (pH 8.0), 1 mM DTT, 1.9 μM SAM, and 0.1 μM ^3H-SAM (PerkinElmer)] in the presence of 0.7 μM GpppAC4 synthetic RNA and the MTase (500 nM), according to the method previously described.[39] Briefly, the MTase was first mixed with the compound suspended in DMSO (5% final DMSO) before the addition of RNA substrate and SAM and then incubated at 30 °C. Reactions mixtures were stopped after 30 min by their 10-fold dilution in ice-cold water. Samples were transferred to diethylaminoethyl (DEAE) filtermat (PerkinElmer) using a Filtermat Harvester (Packard Instruments). The RNA-retaining mats were washed twice with 10 mM ammonium formate pH 8.0, twice with water and once with ethanol. They were soaked with scintillation fluid (PerkinElmer), and ^3H-methyl transfer to the RNA substrates was determined using a Wallac MicroBeta TriLux liquid scintillation counter (PerkinElmer).

[6] = biological target: T2, ZIKV MTase (Zika virus, UniProt A0A024B7W1); experiment: Filter binding assay (FBA), ZIKV 2′-O-MTase activity; assay type: biochemical; settings: for inhibition at 50 µM: 2′-O-MTase activity, compound at 50 μM, read-out: Percentage of inhibition of ZIKV MTase; for Effect on 2′-O-MTase activity of ZIKV (in words): tested at 50 μM
T2 construct: the ZIKV NS5 MTase (aa 4-278) domain were synthesized (Genscript); His6 (N); made in house; host or cells: Escherichia coli T7 Express Iq
Description: as §3, §4, §5

[7] = Stability towards spontaneous cyclization in PBS : DMSO followed by HPLC; assay type: physicochemical; settings: PBS : DMSO (95 : 5), HPLC over a 24-hour period
Description: Then, compound 28 was treated with TFA at 70 °C to remove the tert-butyl ester and the p-methoxybenzyl group. Analysis of the reaction by HPLC/MS after 1 h indicated a mixture of two compounds with m/z = 695 and m/z = 575, that might correspond to cyclized products with and without the p-methoxybenzyl group at position 6 (see Fig. S3 at the SI). […] In exploring alternative methods for removing the PMB group, we came across a report by Sako et al., which described the oxidative debenzylation of 6-N-benzyladenosines under neutral pH conditions.[32] Since our compounds are more lipophilic than the nucleosides described by […], we changed the PBS : CH3CN ratio from 2 : 1, as described, to 1 : 1 to favor the solubility of our compounds. Additionally, we used microwave irradiation to shorten the reaction times. Thus, treatment of 27 with […] in PBS : CH3CN (1 : 1) at 80 °C for 45 min under MW irradiation led to the removal of the p-methoxybenzyl group, as detected by HPLC/MS. Further treatment of the reaction product with piperidine afforded 29 (25% yield over the 2 steps). A similar reaction sequence applied to 28 led to compound 30 (21% yield). […] Finally, treatment of 29 and 30 with TFA in DCM at rt afforded compounds 31 and 32 in 73% and 62% yields, respectively. To rule out the possibility of spontaneous cyclization following removal of both protecting groups from the amino acid, compounds 21, 31 and 32 were dissolved in a PBS : DMSO (95 : 5) mixture.

T2 sequence (A0A024B7W1 2524-2798): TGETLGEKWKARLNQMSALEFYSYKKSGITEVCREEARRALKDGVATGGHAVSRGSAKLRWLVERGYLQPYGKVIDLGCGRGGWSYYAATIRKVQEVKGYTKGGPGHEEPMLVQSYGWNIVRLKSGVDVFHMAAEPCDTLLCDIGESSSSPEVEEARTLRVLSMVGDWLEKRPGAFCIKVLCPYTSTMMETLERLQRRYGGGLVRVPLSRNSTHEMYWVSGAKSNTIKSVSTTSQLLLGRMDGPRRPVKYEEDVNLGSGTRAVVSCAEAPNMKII
T1 sequence (P27915 2492-2753): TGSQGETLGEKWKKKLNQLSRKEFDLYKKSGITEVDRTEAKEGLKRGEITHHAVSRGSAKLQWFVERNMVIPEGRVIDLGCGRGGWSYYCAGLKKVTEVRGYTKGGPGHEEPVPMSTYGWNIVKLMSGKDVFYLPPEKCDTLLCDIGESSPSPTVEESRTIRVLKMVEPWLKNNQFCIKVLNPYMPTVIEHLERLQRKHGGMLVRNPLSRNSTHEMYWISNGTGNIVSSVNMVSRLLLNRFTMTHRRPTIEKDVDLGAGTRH

Row | Compound | CC50 [1] [µM] | EC50 [2] [µM] | CC50 at 7 days [3] [µM] | EC50 [4] [µM] | inhibition at 50 µM [5] [%] | Effect on 2′-O-MTase activity of DENV3 (in words) [5] | inhibition at 50 µM [6] [%] | Effect on 2′-O-MTase activity of ZIKV (in words) [6] | Stability (no spontaneous cyclization) [7] | Antiviral activity against ZIKV (in words) ([2]; cell-based assay)
1 | C[C@@]1(O)[C@H](O)[C@@H](CO)O[C@H]1n1ccc2c(N)ncnc21 [Compound 7DMA, 7-Deaza-2′-C-methyladenosine, reference compound] | > 200 | 9 ± 0.2 | > 50 | 33.7 ± 5.1 |  |  |  |  |  | 
2 | CC(C)(C)CCN(CC[C@H](N)C(=O)O)c1cccc(-n2cnc3c(N)ncnc32)c1 [Compound 10, (S)-2-Amino-4-((3-(6-amino-9H-purin-9-yl)phenyl)(3,3-dimethylbutyl)amino)butanoic acid] | > 100 | > 100 | > 100 | > 100 | 0 | no effect | 0 | no effect |  | 
3 | Cc1ncnc2c1ccn2-c1cccc(N(CC[C@H](N)C(=O)O)CCC(C)(C)C)c1 [Compound 14, (S)-2-Amino-4-((3,3-dimethylbutyl)(3-(4-methyl-7H-pyrrolo[2,3-d]pyrimidin-7-yl)phenyl)amino)butanoic acid] | > 100 | > 100 | > 100 | > 100 | 0 | no effect | 0 | no effect |  | 
4 | Cc1ncnc2c1ccn2-c1cccc(N(CC[C@H](NC(=O)OC(C)(C)C)C(N)=O)CCC(C)(C)C)c1 [Compound 17, tert-Butyl (S)-(1-amino-4-((3,3-dimethylbutyl)(3-(4-methyl-7H-pyrrolo[2,3-d]pyrimidin-7-yl)phenyl)amino)-1-oxobutan-2-yl)carbamate] | 22.8 ± 0.5 | > 100 | 7 | > 100 | 7.2 | modest inhibition | 11.1 | modest inhibition |  | 
5 | Cc1ncnc2c1ccn2-c1cccc(NC(=O)C[C@H](N)C(=O)OC(C)(C)C)c1 [Compound 20, tert-Butyl N^4-(3-(4-methyl-7H-pyrrolo[2,3-d]pyrimidin-7-yl)phenyl)-L-asparaginate] | > 33 | > 100 | > 100 | > 100 | 0 | no effect | 0 | no effect |  | 
6 | Cc1ncnc2c1ccn2-c1cccc(NC(=O)C[C@H](N)C(=O)O)c1 [Compound 21, N ^4-(3-(4-Methyl-7H-pyrrolo[2,3-d]pyrimidin-7-yl)phenyl)-L-asparagine] | > 100 | > 100 | > 100 | > 100 | 0 | no effect | 0 | no effect | remained intact | 
7 | CC(C)(C)OC(=O)[C@@H](N)CC(=O)Nc1cccc(-n2cnc3c(N)ncnc32)c1 [Compound 29, tert-Butyl N^4-(3-(6-amino-9H-purin-9-yl)phenyl)-L-asparaginate] | > 100 | > 100 | > 100 | > 100 | ~20 | some inhibition | ~20 | inhibited; also recorded: some inhibition |  | no antiviral activity
8 | COc1ccc(NC(=O)C[C@H](N)C(=O)OC(C)(C)C)cc1-n1cnc2c(N)ncnc21 [Compound 30, tert-Butyl N^4-(3-(6-amino-9H-purin-9-yl)-4-methoxyphenyl)-L-asparaginate] | > 100 | > 100 | > 100 | > 100 | 0 | no effect | 0 | no effect |  | 
